IC50 and inhibition data for eleven compounds are collected here from patent EP2951180B1, “2,6,7,8 SUBSTITUTED PURINES AS HDM2 INHIBITORS” (Merck Sharp & Dohme Corp., priority 2013, dated 2014).

The experiment addresses T1, HDM2 (Homo sapiens, UniProt Q00987).
T1 construct: Thioredoxin (N); made in house; host or cells: E. coli strain BL21(DE3)Rosetta
The experiment is described as follows: HDM2 FRET assay (inhibition of binding of FITC labeled p53-pocket peptide to HDM2). The settings on record: for pIC50: read-out: FRET IC50. In short, it runs like this:
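Final: 0.5 nM His-HDM2, 3 nM FITC peptide, 0.25 nM Tb anti-His Ab; PBS, 0.01% BSA, 0.01% Tween-20; 0.1% DMSO.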

Setting [1] is: 0.5 nM HDM2 (residues 17 to 125), 3nM peptide, two hour incubation at room temperature.

pIC50: −log10 of the molar value. Like-named read-outs stand apart in the source and are kept apart here.

As a reminder, the pIC50 is the negative decadic logarithm of the IC50, by convention in mol/L.

T1 sequence (Q00987 17-125): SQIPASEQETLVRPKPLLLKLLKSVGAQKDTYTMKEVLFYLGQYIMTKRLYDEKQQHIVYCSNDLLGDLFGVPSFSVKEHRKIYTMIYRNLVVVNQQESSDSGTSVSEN

Take `C[C@H](CO)Nc1nc2nc(-c3noc(=O)[nH]3)nc(-c3cccc(Cl)c3)c2n1C[C@H]1CC[C@H](C)CC1` [Example 16.4, 3-(6-(3-chlorophenyl)-8-(((R)-1-hydroxypropan-2-yl)amino)-7-(((trans)-4-methylcyclohexyl)methyl)-7H-purin-2-yl)-1,2,4-oxadiazol-5(4H)-one]: the pIC50 under setting [1] is 7.53. As to `C[C@@H](Nc1nc(-c2noc(=O)[nH]2)nc2nc(N3CCCCC3Cc3ccccc3)n(C[C@H]3CC[C@H](C)CC3)c12)C1CCC1` (stereo partly drawn) [Example 11.45, 3-{8-(2-benzylpiperidin-1-yl)-6-{[(1R)-1-cyclobutylethyl]amino}-7-[(trans-4-methylcyclohexyl)methyl]-7H-purin-2-yl}-1,2,4-oxadiazol-5(2H)-one], the pIC50 (Table 11) was 7.09. Regarding `Cc1cccc(-c2nc(-c3n[nH]c(=O)o3)nc3nc(N4CCOC[C@@H]4C)n(C[C@H]4CC[C@H](C)CC4)c23)c1` [Example 16.37, 5-{7-[(trans-4-methylcyclohexyl)methyl]-8-[(3S)-3-methylmorpholin-4-yl]-6-(3-methylphenyl)-7H-purin-2-yl} -1,3,4-oxadiazol-2(3H)-one], under setting [1], the pIC50 was 6.00. Take `C[C@@H](Nc1nc(-c2noc(=O)[nH]2)nc2nc(C3CCCCC3)n(C[C@H]3CC[C@H](C)CC3)c12)C1CCC1` [Example 21.39, 3-(6-{[(1R)-1-cyclobutylethyl]amino}-8-cyclohexyl-7-[(trans-4-methylcyclohexyl)methyl]-7H-purin-2-yl)-1,2,4-oxadiazol-5(4H)-one]: for the setting “Table 21”, the pIC50 is 8.10. On to `Cc1cccc(-c2nc3nc(C(=O)O)nc(N(C)CC4CC4(C)C)c3n2Cc2ccc(C(F)(F)F)cc2)c1` (centres unmarked) [Example 6.90, 6-{[(2,2-dimethylcyclopropyl)methyl](methyl)amino}-8-(3-methylphenyl)-7-[4-(trifluoromethyl)benzyl]-7H-purine-2-carboxylic acid], for which the inhibition at 1 µM (read-out: inh. at 1000 nM (FRET)) turned out to be 34%. With `CC(C)COC(C)c1nc2nc(C(=O)O)nc(N[C@H](C)C3CCC3)c2n1Cc1ccc(C(F)(F)F)cc1` (stereo partly drawn) [Example 10.5, 6-(((R)-1-cyclobutylethyl)amino)-8-(1-isobutoxyethyl)-7-(4-(trifluoromethyl)benzyl)-7H-purine-2-carboxylic acid], under “Table 10”, the pIC50 was 7.40. Consider `C[C@@H](Nc1nc(-c2noc(=O)[nH]2)nc2nc(N(C)C3CCc4ccccc43)n(Cc3ccc(C(F)(F)F)cc3)c12)C1CCC1` (stereo partly drawn) [Example 9.102, 3-(6-{[(1R)-1-cyclobutylethyl]amino}-8-[2,3-dihydro-1H-inden-1-yl(methyl)amino]-7-[4-(trifluoromethyl)benzyl]-7H-purin-2-yl)-1,2,4-oxadiazol-5(4H)-one], for which, under “Table 9”, the pIC50 was 7.22.

Turning to `Cc1cccc(-c2nc3nc(C(=O)O)nc(NC4CCCC4)c3n2Cc2ccc(C(F)(F)F)cc2)c1` [Example 6.22, 6-(cyclopentylamino)-8-(3-methylphenyl)-7-[4-(trifluoromethyl)benzyl]-7H-purine-2-carboxylic acid], where the note is “Table 6”, the pIC50 is 6.19. On to `CC(C)CC(=O)Nc1nc2nc(C(=O)O)nc(N[C@H](C)C3CCC3)c2n1Cc1ccc(C(F)(F)F)cc1` [Example 9.42, 6-{[(1R)-1-cyclobutylethyl]amino}-8-[(3-methylbutanoyl)amino]-7-[4-(trifluoromethyl)benzyl]-7H-purine-2-carboxylic acid], for which the pIC50 (Table 9) was 6.49.

As for `Cc1nn(C)cc1CNc1nc2nc(-c3noc(=O)[nH]3)nc(N[C@H](C)C3CCC3)c2n1C[C@H]1CC[C@H](C)CC1` [Example 11.109, 3-(6-{[(1R)-1-cyclobutylethyl]amin ο}-8-{[(1,3-dimethyl-1H-pyrazol-4-yl)methyl]amino} -7-[(trans-4-methylcyclohexyl)methyl]-7H-purin-2-yl)-1,2,4-oxadiazol-5(2H)-one], the pIC50 (Table 11) is 7.25. Consider `CCCCN(CCC)c1nc(C(=O)O)nc2nc(-c3cccc(C)c3)n(Cc3ccc(C(F)(F)F)cc3)c12` [Example 6.68, 6-[butyl(propyl)amino]-8-(3-methylphenyl)-7-[4-(trifluoromethyl)benzyl]-7H-purine-2-carboxylic acid], for which the pIC50 (Table 6) is 6.17.
